Laboratory results reported in patent US20040156881A1, “Use of lignans in foods” (priority 2001, published 2004).

Legend:
[1] = tested on: Prostaglandin E2 (=PGE2) production by the human skin fibroblasts; test: PGE2 levels in PMA-induced human dermal fibroblasts (anti-inflammatory cell assay); assay type: cell-based; conditions: primary human foreskin fibroblasts, FIGS. 1 and 2; for concentration dependence of anti-inflammatory effect as measured by a reduction in PGE2: increasing concentrations; for anti-inflammatory effect (PGE2 level versus control+veh+PMA): three concentration levels
Protocol: It is emphasized that the anti-inflammatory effects were determined by in vitro tests wherein the Prostaglandin E2 (=PGE2) production by the human skin fibroblasts is measured after being induced by the inflammatory modulus phorbyl myristyl acetate (PMA). A reduction of the levels of PGE2 is indicative of the anti-inflammatory effect.
Fibroblast cell assay: Primary human foreskin fibroblasts at passage 2 (P2) were seeded into 96-well plates at 35000 cells/well and maintained for 24 hours in an atmosphere of 5% carbon dioxide in Dulbeccos Modified Eagles Medium (DMEM) supplemented with 10% foetal calf serum.
The lignan-compound (SECO or MAT) was added to fresh cell media (DMEM, supplemented with 10% foetal calf serum) in 100% ethanol (final concentration 1%) in triplicate and incubated for a further 24 hours. Phorbal myristate acetate (PMA) in ethanol/cell media ([…]) was added to the cells treated with the lignan compound (SECO) and the cells incubated for a further 24 hours. PMA represents an external stressor, which induces oxidative stress and inflammatory responses in cells. The fibroblasts/media were then analysed as described below immediately, or, snap frozen in liquid nitrogen and stored at −70° C. for future analysis. The cells were then counted to ensure no effect on cell number.
Different concentrations of SECO or MAT were used in the above method to study the effect of concentration. A series of control experiments were also carried out according to the above method; Control+veh+PMA (positive control), Control+veh (negative control) and control (standard control).
Prostaglandin E2 (PGE2) assay volumes of 50 μl culture medium were taken for PGE2 assay from the above samples after gently shaking the culture plate. PGE2 levels in the medium were determined with a Biotrak PGE2 immunoassay kit (Amersham, UK). The assay is based on the competition between unlabelled PGE2 in the sample and a fixed quantity of horseradish peroxidase labelled PGE2 for a limited amount of fixed PGE2 specific antibody. Concentrations of unlabelled sample PGE2 are determined according to a standard curve, which was obtained at the same time.

[2] = tested on: Procollagen-I and Decorin production by the human dermal fibroblasts; test: Procollagen-I and decorin synthesis in human dermal fibroblasts (anti-ageing cell assay, dot blot); assay type: cell-based; conditions: primary human foreskin fibroblasts, serum free DMEM, 24 hours, different concentration levels, FIGS. 3 and 4
Protocol: It is emphasized that the anti-ageing effects were determined by in vitro tests wherein the Procollagen-I and Decorin production by the human dermal fibroblasts is measured after being induced by the anti-ageing stimulus. An increase in the levels of Procollagen-I is indicative of the anti-ageing effect.
Preparation of Dermal Fibroblast Conditioned Medium: Primary human foreskin fibroblasts at passage 2 (P2) were seeded into 12-well plates at 40000 cells/well and maintained for 24 hours in an atmosphere of 5% carbon dioxide and 4% oxygen in Dulbeccos Modified Eagles Medium (DMEM) supplemented with 10% foetal calf serum. After this time the cells were washed with serum free DMEM and then incubated in fresh serum free DMEM for a further 60 hours. The fibroblast monolayers were then washed again with serum free DMEM.
The test reagent (MAT and SECO at different concentration levels) and vehicle control (1% ethanol final concentration) were added to the cells in triplicate in a final volume of 0.4 ml/well fresh serum free DMEM and incubated for a further 24 hours. This fibroblast conditioned medium was either analysed immediately, or, snap frozen in liquid nitrogen and stored at −70° C. for future analysis. The cells were then counted and data from the dot-blot analysis subsequently standardised to cell number. […]

Structure (SMILES) | concentration dependence of anti-inflammatory effect as measured by a reduction in PGE2 [1] | anti-inflammatory effect (PGE2 level versus control+veh+PMA) [1] | anti-ageing effects (procollagen-I and decorin synthesis relative to vehicle treated control of 100 arbitrary units) [2]
COc1cc(C[C@@H](CO)[C@H](CO)Cc2ccc(O)c(OC)c2)ccc1O [SECO, secoisolariciresinol] | produced increasing anti-inflammatory effects | effective in producing an anti-inflammatory effect in human cells | showed increased anti-ageing effects in human cells compared to a control sample
COc1cc(C[C@H]2COC(=O)[C@@H]2Cc2ccc(O)c(OC)c2)ccc1O [MAT, matairesinol] | produced increasing anti-inflammatory effects | effective in producing an anti-inflammatory effect in human cells | showed increased anti-ageing effects in human cells compared to a control sample
